Measured values from patent publication US20260103461A1, “ESTROGEN RECEPTOR MODULATORS AND USES THEREOF” (Olema Pharmaceuticals, Inc., priority 2022, published 2026).

Target: T1, estrogen receptor (Homo sapiens, UniProt P03372)
T1 construct: endogenous in cells; host or cells: ECC-1 cells
T1 sequence (P03372 1-595): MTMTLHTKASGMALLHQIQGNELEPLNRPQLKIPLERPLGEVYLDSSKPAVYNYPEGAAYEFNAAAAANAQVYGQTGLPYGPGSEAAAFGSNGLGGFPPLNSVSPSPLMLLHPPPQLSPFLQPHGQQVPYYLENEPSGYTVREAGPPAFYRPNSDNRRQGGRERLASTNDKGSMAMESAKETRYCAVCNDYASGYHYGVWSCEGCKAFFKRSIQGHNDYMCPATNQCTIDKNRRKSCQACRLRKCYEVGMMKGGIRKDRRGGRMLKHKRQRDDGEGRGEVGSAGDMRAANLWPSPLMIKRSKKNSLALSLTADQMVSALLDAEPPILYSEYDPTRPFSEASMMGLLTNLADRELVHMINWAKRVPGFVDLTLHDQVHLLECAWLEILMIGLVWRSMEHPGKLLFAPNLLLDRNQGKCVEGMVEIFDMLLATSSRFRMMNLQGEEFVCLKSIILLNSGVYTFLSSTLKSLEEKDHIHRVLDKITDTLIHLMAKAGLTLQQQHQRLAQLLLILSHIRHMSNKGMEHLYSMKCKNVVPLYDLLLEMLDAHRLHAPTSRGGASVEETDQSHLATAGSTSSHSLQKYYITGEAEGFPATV
Experiment: AP (alkaline phosphatase) assay in ECC-1 cells, agonist mode and antagonist mode
Assay type: cell-based
Conditions: 3 days, absence of E2 (agonist mode) or 500 pM E2 (antagonist mode), AP activity normalized to 500 pM E2 alone
Procedure: ECC-1 cells were trypsinized and resuspended in hormone-depleted media and plated at a density of 15 k cells per well into a 96-well plate for at least 4 hours. Cells were treated with test compounds in the absence of E2 (for agonist mode) or in the presence of 500 pM E2 (for antagonist mode) for 3 days and plates were subsequently frozen at −80° C. Thawed plates were incubated with a chromogenic substrate of AP, p-nitrophenyl phosphate (Thermo Fisher Scientific), for 40 minutes at 42° C., and absorbances were read at 405 nm. AP activity was normalized to the activity of 500 pM E2 alone.
The compound numbers correspond to the compound numbers of Table 1 and 2. Compounds having an activity designated as “+” provided estrogen receptor agonism having (i) at least 80% increase in the E2-normalized signal in the AP assay (agonist mode) and (ii) no more than 80% reduction in the E2-normalized signal in the AP assay (antagonist mode). Compounds having an activity designated as “++” provided estrogen receptor antagonism having (i) between 10% and 80% increase in the E2-normalized signal in the AP assay (agonist mode) and (ii) between 10% and 80% reduction in the E2-normalized signal in the AP assay (antagonist mode).

For `CCCN1CC(Oc2ccc([C@@H]3c4[nH]c5ccccc5c4C[C@@H](C)N3CC(C)(C)F)s2)C1` [Example I-1, 3-({5-[(1S,3R)-2-(2-fluoro-2-methylpropyl)-3-methyl-1H,2H,3H,4H,9H-pyrido[3,4-b]indol-1-yl]thiophen-2-yl}oxy)-1-propylazetidine], the “Activity (estrogen receptor modulation, agonism and antagonism)” value (“Activity” below) was “++ (estrogen receptor antagonism having (i) between 10% and 80% increase in the E2-normalized signal in the AP assay (agonist mode) and (ii) between 10% and 80% reduction in the E2-normalized signal in the AP assay (antagonist mode))”.

`C[C@@H]1Cc2c([nH]c3ccccc23)[C@@H](c2ccc(OC3CN(CCCF)C3)s2)N1CC(F)(F)F` [Example I-21, (1S,3R)-1-[5-[1-(3-fluoropropyl)azetidin-3-yl]oxy-2-thienyl]-3-methyl-2-(2,2,2-trifluoroethyl)-1,3,4,9-tetrahydropyrido[3,4-b]indole] was tested, and the “Activity” value was “++ (estrogen receptor antagonism having (i) between 10% and 80% increase in the E2-normalized signal in the AP assay (agonist mode) and (ii) between 10% and 80% reduction in the E2-normalized signal in the AP assay (antagonist mode))”.

`CCN1CC[C@@H](Oc2ccc([C@@H]3c4[nH]c5ccccc5c4C[C@@H](C)N3CC(C)(C)F)s2)C1` [Example I-14, (1S,3R)-1-[5-[(3R)-1-ethylpyrrolidin-3-yl]oxy-2-thienyl]-2-(2-fluoro-2-methyl-propyl)-3-methyl-1,3,4,9-tetrahydropyrido[3,4-b]indole] was tested, and the “Activity” value was “+ (estrogen receptor agonism having (i) at least 80% increase in the E2-normalized signal in the AP assay (agonist mode) and (ii) no more than 80% reduction in the E2-normalized signal in the AP assay (antagonist mode))”.

In the case of `C[C@@H]1Cc2c([nH]c3ccccc23)[C@@H](c2cnc(O[C@@H]3CCCN(CCCF)C3)s2)N1CC(F)(F)CO` [Example I-37, 2,2-difluoro-3-[(1S,3R)-1-[2-[[(3R)-1-(3-fluoropropyl)-3-piperidyl]oxy]thiazol-5-yl]-3-methyl-1,3,4,9-tetrahydropyrido[3,4-b]indol-2-yl]propan-1-ol], the “Activity” value was “+++ (estrogen receptor antagonism (i) with pIC50 greater than 7.5 and at least a 10% reduction in the E2-normalized signal in the AP assay (antagonist mode); and no more than 10% increase in E2-normalized signal in the AP assay (agonist mode))”.

For `C[C@@H]1Cc2c([nH]c3ccccc23)[C@@H](c2sc(O[C@@H]3CCN(CCCF)C3)cc2F)N1CC(F)(F)CO` [Example I-27, 2,2-difluoro-3-[(1S,3R)-1-[3-fluoro-5-[(3R)-1-(3-fluoropropyl)pyrrolidin-3-yl]oxy-2-thienyl]-3-methyl-1,3,4,9-tetrahydropyrido[3,4-b]indol-2-yl]propan-1-ol], the “Activity” value was “+++ (estrogen receptor antagonism (i) with pIC50 greater than 7.5 and at least a 10% reduction in the E2-normalized signal in the AP assay (antagonist mode); and no more than 10% increase in E2-normalized signal in the AP assay (agonist mode))”.

`C[C@@H]1Cc2c([nH]c3ccccc23)[C@@H](c2ccc(O[C@@H]3CCN(CCCF)C3)s2)N1CC(F)(F)F` [Example I-20, (1S,3R)-1-[5-[(3R)-1-(3-fluoropropyl)pyrrolidin-3-yl]oxy-2-thienyl]-3-methyl-2-(2,2,2-trifluoroethyl)-1,3,4,9-tetrahydropyrido[3,4-b]indole] was tested, and the “Activity” value was “++ (estrogen receptor antagonism having (i) between 10% and 80% increase in the E2-normalized signal in the AP assay (agonist mode) and (ii) between 10% and 80% reduction in the E2-normalized signal in the AP assay (antagonist mode))”.

With `C[C@@H]1Cc2c([nH]c3ccccc23)[C@@H](c2cnc(OC3CN(CCCF)C3)s2)N1CC(F)(F)CO` [Example I-31, 2,2-difluoro-3-[(1S,3R)-1-[2-[1-(3-fluoropropyl)azetidin-3-yl]oxythiazol-5-yl]-3-methyl-1,3,4,9-tetrahydropyrido[3,4-b]indol-2-yl]propan-1-ol] the “Activity” value was “++ (estrogen receptor antagonism having (i) between 10% and 80% increase in the E2-normalized signal in the AP assay (agonist mode) and (ii) between 10% and 80% reduction in the E2-normalized signal in the AP assay (antagonist mode))”.
